# Reference: patent EP4818194A1, “CHEMICALLY MODIFIED POLYPEPTIDE” (priority 2023, dated 2025)
# pEC50: −log10 of the molar value. Where a SMILES comes first, the peptide text is derived from it. Where no end group is shown, it is not given here. [ ]: non-standard residue; d: D form. pY = N[C@@H](Cc1ccc(OP(=O)(O)O)cc1)C(=O)O; NMeY = CN[C@@H](Cc1ccc(O)cc1)C(=O)O; Tle = CC(C)(C)[C@H](N)C(=O)O; Aib = CC(C)(N)C(=O)O
# Columns and labels:
# [1] = Pharmacokinetic characteristics in rats after intravenous administration (plasma, LC-MS/MS); assay type: in vivo; settings: rat, SD rats, tail vein, 10 mg/kg; for Vd: read-out: Vss
# Method: Intravenous administration: Three SD rats per group were administered the compounds of Example 1, Example 2, Example 3, Example 6, Example 7, Example 17, and Example 19 via the tail vein, respectively, at a dose of 10 mg/kg. all SD rats were allowed free access to food and water after administration. Plasma was collected 3 min, 10 min, 30 min, 1 h, 2 h, 6 h, 10 h, and 24 h after administration, with 3 rats per time point.
# Sample processing: Whole blood was anticoagulated with EDTA-K2. Within 30 minutes of collection, the blood was centrifuged at 3000g for 10 minutes at 2-8°C. After centrifugation, the separated plasma was transferred to new 1.5 mL centrifuge tubes and stored at -80°C.
# Analytical method: The concentrations of each compounds in rat plasma were determined by LC-MS/MS using Shimadzu LC30AD and AB Sciex QTRAP 6500+instruments. The relevant pharmacokinetic parameters after administration were calculated. Table 5: Pharmacokinetic parameters after administration
# PC-12 cells = assay type: cell-based; settings: for Normalized cell viability (%): PC-12 cells, 10 nM polypeptide pretreatment for 30 minutes, then glutamate stimulation for 24 hours, normalized to positive control MK-801 and glutamate group
# Method: PC-12 cells (a […] cell line derived from rat adrenal medulla) were cultured in DMEM/F12 complete medium until eaching 80-90% confluence. The cells were then digested, collected, resuspended, and seeded at density of 5 × 10^4 cells per well in a 24-well plate precoated with coverslips. Following 26 hours of cell culture, excitotoxic cell death was induced by glutamate stimulation. For model establishment: an appropriate amount of glutamate was weighed and dissolved in DMEM/F12 medium to prepare a stock solution. After filtration, the stock solution was diluted with culture medium and administered to the cells via medium replacement. The cells were further incubated for 24 hours after administration.
# Prior to glutamate modeling, cells incubated as described in the previous step were pretreated with 10 nM of the polypeptide compound according to the present application for 30 minutes, followed by glutamate stimulation.
# Cells treated with the polypeptide compound according to the present application were stained with propidium iodide to assess cell death. After discarding the culture medium, the cells were washed with PBS, and propidium iodide/Hoechst was added. After incubating for 30 minutes, the cells were removed and the staining solution was discarded. After washing with PBS, the cells were fixed and mounted, and subjected to image acquisition under a fluorescence microscope. The number of propidium iodide-positive cells and Hoechst-positive cells in the acquired images was counted to calculate the cell viability. MK-801 was used as the positive control compound. The normalized cell viability was calculated using the following formula: (cell viability of the compound group - cell viability of the glutamate group) / (cell viability of the positive control group - cell viability of the glutamate group) × 100%.
# Based on the above dose-response studies of the compound, the inhibitory effects of different small-molecule compounds at the same dose (10 nM) against excitotoxic death in PC-12 neurons cells were further compared. […]
pEC50 (PC-12 cells; 26 h),Molecule,MRT [1] [h],half-life [1] [h],Vd [1] [L/kg],Normalized cell viability (%) (PC-12 cells)
–,YGRKKRRERRRKKDRNKLRRQHSY [Example 17],2.29,1.66,23.1,–
–,Ac-YGRKKRRQRRRKKNRNKLRRQHSY-NH2 [Example 7],1.93,1.51,3.58,–
–,"YGRKKRRQRRRKKNRNKLRRQHSY [Example 1, reference compound]",0.87,0.76,1.29,41.00
–,YGRKKRRQRRRKKNRNKLRRQHSY-NH2 [Example 6],1.65,1.23,2.53,–
–,CN[C@@H](Cc1ccc(O)cc1)C(=O)NCC(=O)N[C@@H](CCCNC(=N)N)C(=O)N[C@@H](CCCCN)C(=O)N[C@@H](CCCCN)C(=O)N[C@@H](CCCNC(=N)N)C(=O)N[C@@H](CCCNC(=N)N)C(=O)N[C@@H](CCC(=O)O)C(=O)N[C@@H](CCCNC(=N)N)C(=O)N[C@@H](CCCNC(=N)N)C(=O)N[C@@H](CCCNC(=N)N)C(=O)N[C@@H](CCCCN)C(=O)N[C@@H](CCCCN)C(=O)N[C@@H](CC(=O)O)C(=O)N[C@@H](CCCNC(=N)N)C(=O)N[C@@H](CC(=O)O)C(=O)N[C@@H](CCCCN)C(=O)N[C@@H](CC(C)C)C(=O)N[C@@H](CCCNC(=N)N)C(=O)N[C@@H](CCCNC(=N)N)C(=O)N[C@@H](CCC(=O)O)C(=O)N[C@@H](Cc1c[nH]cn1)C(=O)N[C@@H](CO)C(=O)N[C@@H](Cc1ccc(O)cc1)C(N)=O [Example 19] (H-[NMeY]GRKKRRERRRKKDRDKLRREHSY-NH2),1.73,1.16,9.11,–
8.87,"CN[C@@H](Cc1ccc(O)cc1)C(=O)NC(C)(C)C(=O)N[C@@H](CCCNC(=N)N)C(=O)N[C@@H](CCCCN)C(=O)N[C@@H](CCCCN)C(=O)N[C@@H](CCCNC(=N)N)C(=O)N[C@@H](CCCNC(=N)N)C(=O)N[C@@H](CCC(=O)O)C(=O)N[C@@H](CCCNC(=N)N)C(=O)N[C@@H](CCCNC(=N)N)C(=O)N[C@@H](CCCNC(=N)N)C(=O)N[C@@H](CCCCN)C(=O)N[C@@H](CCCCN)C(=O)N[C@@H](CC(=O)O)C(=O)N[C@@H](CCCNC(=N)N)C(=O)N[C@@H](CC(=O)O)C(=O)N[C@@H](CCCCN)C(=O)N[C@H](C(=O)N[C@@H](CCCNC(=N)N)C(=O)N[C@@H](CCCNC(=N)N)C(=O)N[C@@H](CCC(=O)O)C(=O)N[C@@H](Cc1c[nH]cn1)C(=O)N[C@@H](CO)C(=O)N[C@@H](Cc1ccc(O)cc1)C(N)=O)C(C)(C)C [Example 24, Me-YAibRKKRRERRRKKDRDKTleRREHSY-NH2] (H-[NMeY][Aib]RKKRRERRRKKDRDK[Tle]RREHSY-NH2)",–,–,–,–
–,CN[C@@H](Cc1ccc(O)cc1)C(=O)NCC(=O)N[C@@H](CCCNC(=N)N)C(=O)N[C@@H](CCCCN)C(=O)N[C@@H](CCCCN)C(=O)N[C@@H](CCCNC(=N)N)C(=O)N[C@@H](CCCNC(=N)N)C(=O)N[C@@H](CCC(N)=O)C(=O)N[C@@H](CCCNC(=N)N)C(=O)N[C@@H](CCCNC(=N)N)C(=O)N[C@@H](CCCNC(=N)N)C(=O)N[C@@H](CCCCN)C(=O)N[C@@H](CCCCN)C(=O)N[C@@H](CC(N)=O)C(=O)N[C@@H](CCCNC(=N)N)C(=O)N[C@@H](CC(N)=O)C(=O)N[C@@H](CCCCN)C(=O)N[C@@H](CC(C)C)C(=O)N[C@@H](CCCNC(=N)N)C(=O)N[C@@H](CCCNC(=N)N)C(=O)N[C@@H](CCC(N)=O)C(=O)N[C@@H](Cc1c[nH]cn1)C(=O)N[C@@H](CO)C(=O)N[C@@H](Cc1ccc(O)cc1)C(=O)O [Example 2] (H-[NMeY]GRKKRRQRRRKKNRNKLRRQHSY-OH),1.84,1.73,3.94,–
–,CC(C)C[C@H](NC(=O)[C@H](CCCCN)NC(=O)[C@H](CC(N)=O)NC(=O)[C@H](CCCNC(=N)N)NC(=O)[C@H](CC(N)=O)NC(=O)[C@H](CCCCN)NC(=O)[C@H](CCCCN)NC(=O)[C@H](CCCNC(=N)N)NC(=O)[C@H](CCCNC(=N)N)NC(=O)[C@H](CCCNC(=N)N)NC(=O)[C@H](CCC(N)=O)NC(=O)[C@H](CCCNC(=N)N)NC(=O)[C@H](CCCNC(=N)N)NC(=O)[C@H](CCCCN)NC(=O)[C@H](CCCCN)NC(=O)[C@H](CCCNC(=N)N)NC(=O)CNC(=O)[C@@H](N)Cc1ccc(OP(=O)(O)O)cc1)C(=O)N[C@@H](CCCNC(=N)N)C(=O)N[C@@H](CCCNC(=N)N)C(=O)N[C@@H](CCC(N)=O)C(=O)N[C@@H](Cc1c[nH]cn1)C(=O)N[C@@H](CO)C(=O)N[C@@H](Cc1ccc(O)cc1)C(=O)O [Example 3] (H-[pY]GRKKRRQRRRKKNRNKLRRQHSY-OH),1.71,1.28,7.9,–
–,Ac-YGRKKRRQRRRKKNRNKLRRQHSY [Example 4],–,–,–,85.00
